From patent publication US7323303B2, “Modified β-lactamases and uses thereof” (priority 2003, dated 2008)

Key:
[1] = biological target: T1, E166Cf enzyme (Bacillus cereus, UniProt P00809, E185C); assay: Time-resolved fluorescence of E166Cf enzyme with penicillins and cephalosporins; format: biochemical; conditions: E166Cf 1.2×10^−7 M, 50 mM phosphate buffer pH 7.0; up to one hour
T1 construct: made in house; host or cells: B. subtilis 1A304 (φ105MU331); then labelled chemically
T1 sequence (P00809 28-306 E185C): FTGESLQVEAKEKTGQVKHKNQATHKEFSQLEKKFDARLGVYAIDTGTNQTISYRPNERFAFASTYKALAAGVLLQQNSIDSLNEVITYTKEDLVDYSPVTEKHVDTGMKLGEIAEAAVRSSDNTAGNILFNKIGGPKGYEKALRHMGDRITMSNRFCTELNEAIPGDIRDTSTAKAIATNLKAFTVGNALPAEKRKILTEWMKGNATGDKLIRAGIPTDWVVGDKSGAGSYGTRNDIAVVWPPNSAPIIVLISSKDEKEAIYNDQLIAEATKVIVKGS
Procedure: Fluorescence measurements of the E166Cf enzyme in the presence of penicillin G, penicillin V, ampicillin, cefuroxime, cefoxitin and moxalactam were performed on a Perkin Elmer LS50B spectrofluorometer. For time-resolved fluorescence measurement, excitation and emission wavelengths were set at 494 and 515 nm respectively. Both excitation and emission slit widths were set at 5 nm. All fluorescence measurements were performed at room temperature.
With penicillin G as substrate, the fluorescence signal of the E166Cf enzyme (1.2×10^−7 M) at 515 nm in 50 mM phosphate buffer (pH 7.0) increases as a function of the antibiotic concentration (FIG. 4). The time-resolved fluorescence signals of the E166Cf enzyme at 515 nm were also measured with various concentrations of penicillin G (FIG. 5). At low antibiotic concentration (1.0×10^−7 and 1.0×10^−6 M), the fluorescence intensity of the E166Cf enzyme increases gradually and then declines. At high antibiotic concentration (1.0×10^−5 and 1.0×10^−4 M), the fluorescence signal increases instantaneously and levels off to a plateau. The fluorescence signal stays at the plateau for a certain length of time and then declines afterwards. Similar results were obtained with penicillin V and ampicillin (FIGS. 6 and 7).
With cefuroxime, cefoxitin and moxalactam as substrates, the fluorescence intensities of the E166Cf enzyme (1.2×10^−7 M) at 515 nm in 50 mM phosphate buffer (pH 7.0) also increase as a function of antibiotic concentration (FIGS. 8 to 10).
(§1) At high substrate concentration (1.0×10^−5 and 1.0×10^−4 M), the penicillin substrates rapidly occupy the active sites to form the ES complexes, thus switching on the fluorescence of the fluorescein labels instantaneously. […] This can be verified by the fact that the ‘plateau time’ (8 and 22 min for 1.0×10^−5 and 1.0×10^−4 M penicillin G respectively) is consistent with the ‘substrate hydrolysis time’ determined by spectrophotometric assays (7 and 20 min for 1.0×10^−5 and 1.0×10^−4 M penicillin G respectively). When most of the penicillin substrates have been hydrolyzed to carboxylic acids, the fluorescence signal of the labeled enzyme will decline subsequently.

[2] = biological target: T1, E166Cf enzyme; assay: Circular dichroism assay of antibiotic hydrolysis by E166Cf; format: biochemical; conditions: 1.0×10^−4 M antibiotic, E166Cf 1.2×10^−7 M, one hour incubation
Source text: The absence of a declining fluorescence signal for cefuroxime, cefoxitin and moxalactam can be ascribed to the poor hydrolytic activities of the E166Cf enzyme towards these antibiotics (very low k2 and/or k3) (FIG. 14). As a result, the cephalosporin substrates stay in the active sites. To verify this, the activities of the labeled enzyme with cefuroxime, cefoxitin and moxalactam as substrates were monitored by circular dichroism (CD) spectropolarimetry. […] Therefore, by measuring the CD signals of cefuroxime, cefoxitin and moxalactam (1.0×10^−4 M) at 258, 264 and 265 nm respectively as a function of time in the presence of E166Cf enzyme (1.2×10^−7 M), the hydrolytic activities of the labeled enzyme towards these antibiotics can be monitored.

[3] = biological target: T2, B. cereus penPC β-lactamase (Bacillus cereus, UniProt P00809); assay: Drug screening: E166Cf fluorescence in presence of bacterial β-lactamase culture; format: biochemical; set-up: key: −: Decline in fluorescence signal (presence of beta-lactam hydrolysis); +: No decline in fluorescence signal (absence of beta-lactam hydrolysis); conditions: antibiotic 1.0×10^−4 M, E166Cf 1.2×10^−7 M
T2 construct: made in house; host or cells: B. subtilis 1A304 (φ105MU331); whole culture used, not purified
T2 sequence (P00809 28-306): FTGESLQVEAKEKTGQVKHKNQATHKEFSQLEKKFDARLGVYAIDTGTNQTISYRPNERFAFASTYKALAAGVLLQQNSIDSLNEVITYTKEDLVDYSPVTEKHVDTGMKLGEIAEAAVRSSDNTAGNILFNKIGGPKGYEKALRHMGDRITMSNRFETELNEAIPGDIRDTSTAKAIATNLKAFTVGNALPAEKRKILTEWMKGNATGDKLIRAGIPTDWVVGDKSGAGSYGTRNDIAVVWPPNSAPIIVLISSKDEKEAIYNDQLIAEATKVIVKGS
Procedure: (§2) The use of the E166Cf enzyme in screening bacterial β-lactamases against various β-lactam antibiotics was investigated. The principle of our method is that when both E166Cf and bacterial β-lactamase are incubated with ‘β-lactamase-unstable’ antibiotics, the fluorescence of the E166Cf enzyme will be suppressed because of the greater catalytic efficiency of the bacterial enzyme. In contrast, when bacterial β-lactamases are screened against ‘β-lactamase-resistant’ antibiotics, the fluorescence of the E166Cf enzyme will be enhanced because of the poor hydrolytic activity of the bacterial enzyme. Thus, any β-lactam antibiotic that causes the labeled enzyme to increase its fluorescence intensity in the presence of bacterial β-lactamases can be used in clinical treatments.
(§3) The β-lactamase II, penPC β-lactamase and penP β-lactamase were expressed in B. subtilis 1A304 (φ105MU331). These enzymes were prepared according to the procedures described previously (Reference 7: Thomwell, S. J. East, A. K., Errington, J. An efficient expression and secretion system based on Bacillus subtilis phage phi 105 and its uses for the production for B. cereus β-lactamase I. (1993) Gene 133, 47-53) with slight modifications. A bacterial strain was streaked on an agar plate containing 5 μg/ml chloramphenicol, and the plate was incubated at 37° C. for 24 h. A single bacterial colony from the agar plate was inoculated into 100 ml of sterilized BHY medium (37 g/l brain heart infusion and 5 g/l yeast extract) which was then incubated at 37° C. with shaking at 300 rpm overnight. About 7 ml of overnight inoculum was added to a baffled conical flask containing 100 ml of sterilized BHY medium. The inoculated medium was incubated at 37° C. with shaking at 300 rpm. When the optical density of the bacterial culture at 600 nm reached 3.5 to 4.0, the bacterial culture was heated in a water bath at 51° C. for 5 min. Afterwards, the bacterial culture was incubated at 37° C. with shaking at 300 rpm for a further 6 h. The bacterial culture was then harvested and stored at −20° C.
(§4) Fluorescence measurements of the E166Cf enzyme in the presence of bacterial cultures and β-lactam antibiotics were performed on a FLUOstar microplate reader (BMG Labtechnologies) equipped with two sample injectors. Excitation and emission filters of 485 and 520 nm respectively were used. For B. cereus penPC β-lactamase, B. licheniformis penP β-lactamase and B. cereus β-lactamase II, the labeled enzymes were mixed with the bacterial cultures, and the mixtures were made up to 300 μl with 50 mM phosphate buffer (pH 7.0) in a 96-well microtiter plate (Corning Costar). For the purpose of comparison, B. subtilis cultures, which produced no β-lactamase, were set up as negative controls. For E. coli. TEM-1 β-lactamase, the labeled enzymes were mixed with the bacterial cultures without dilution. E. coli. cultures, which produced no β-lactamase, were set up as negative controls for comparison. The antibiotics were then added to the bacterial samples by the injectors.
(§5) The results from the time-resolved fluorescence measurements of the labeled enzyme (1.2×10^−7 M) in the presence of various bacterial cultures and β-lactam antibiotics (1.0×10^−4 M) are shown in FIGS. 23 to 26.

[4] = biological target: T3, B. cereus β-lactamase II (Bacillus cereus, UniProt P04190); assay: as above; format: biochemical; set-up: key: −: Decline in fluorescence signal (presence of beta-lactam hydrolysis); +: No decline in fluorescence signal (absence of beta-lactam hydrolysis); conditions: antibiotic 1.0×10^−4 M, E166Cf 1.2×10^−7 M
T3 construct: made in house; host or cells: B. subtilis 1A304 (φ105MU331); whole culture used, not purified
T3 sequence (P04190 31-257): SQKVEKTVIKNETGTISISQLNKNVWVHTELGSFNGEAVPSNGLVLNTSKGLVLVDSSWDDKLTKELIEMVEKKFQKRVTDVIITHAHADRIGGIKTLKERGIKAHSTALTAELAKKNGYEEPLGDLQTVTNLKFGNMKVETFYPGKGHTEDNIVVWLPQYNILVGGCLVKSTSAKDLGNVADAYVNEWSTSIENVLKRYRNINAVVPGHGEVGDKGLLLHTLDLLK
Procedure: as §2, §3, §4, §5

[5] = biological target: T4, B. licheniformis penP β-lactamase (Bacillus licheniformis, UniProt P00808); assay: as above; format: biochemical; set-up: key: −: Decline in fluorescence signal (presence of beta-lactam hydrolysis); +: No decline in fluorescence signal (absence of beta-lactam hydrolysis); conditions: antibiotic 1.0×10^−4 M, E166Cf 1.2×10^−7 M
T4 construct: made in house; host or cells: B. subtilis 1A304 (φ105MU331); whole culture used, not purified
T4 sequence (P00808 27-307): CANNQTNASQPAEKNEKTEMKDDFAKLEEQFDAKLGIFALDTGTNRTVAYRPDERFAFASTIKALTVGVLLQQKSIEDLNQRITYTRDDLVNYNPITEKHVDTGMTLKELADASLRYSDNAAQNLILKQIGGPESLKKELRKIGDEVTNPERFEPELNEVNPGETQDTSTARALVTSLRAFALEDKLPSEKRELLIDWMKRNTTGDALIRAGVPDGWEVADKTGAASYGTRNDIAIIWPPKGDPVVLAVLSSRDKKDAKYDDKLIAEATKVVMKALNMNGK
Procedure: as §2, §3, §4, §5

[6] = biological target: T5, E. coli TEM-1 β-lactamase (Escherichia coli, UniProt P62593); assay: as above; format: biochemical; set-up: key: −: Decline in fluorescence signal (presence of beta-lactam hydrolysis); +: No decline in fluorescence signal (absence of beta-lactam hydrolysis); conditions: E. coli TEM-1 culture, undiluted; antibiotic 1.0×10^−4 M; E166Cf 1.2×10^−7 M
T5 construct: made in house; host or cells: E. coli BL21(DE3); whole overnight culture used undiluted, not purified
T5 sequence (P62593 24-286 limits assumed): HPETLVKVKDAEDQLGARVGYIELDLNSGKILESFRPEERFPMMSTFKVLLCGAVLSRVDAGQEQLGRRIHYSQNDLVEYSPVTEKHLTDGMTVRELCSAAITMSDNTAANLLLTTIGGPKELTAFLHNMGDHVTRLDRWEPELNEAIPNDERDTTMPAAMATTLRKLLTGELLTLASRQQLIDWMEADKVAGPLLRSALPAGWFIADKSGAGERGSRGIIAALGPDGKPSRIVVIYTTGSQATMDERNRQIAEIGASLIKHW
Procedure: as §2
The TEM-1 β-lactamase was expressed in E. coli. BL21(DE3). Preparation of the TEM-1 β-lactamase was performed as follows. A bacterial strain was streaked on an agar plate containing 100 μg/ml ampicillin, and the plate was incubated at 37° C. for 24 h. A single bacterial colony from the plate was inoculated into 100 ml of sterilized LB broth (28 g/l) which was then incubated at 37° C. with shaking at 280 rpm overnight. After overnight incubation, the bacterial culture was harvested and stored at −20° C.
as §4, §5

[7] = biological target: T6, E166C mutant of β-lactamase I (Bacillus cereus, UniProt P00809, E185C); assay: Spectrophotometric substrate hydrolysis, steady-state kinetics; format: biochemical; conditions: 50 mM potassium phosphate buffer pH 7.0, 20° C.
T6 construct: made in house; host or cells: B. subtilis 1A304 (φ105MU331)
T6 sequence (P00809 28-306 E185C): T1 sequence (P00809 28-306 E185C)
Procedure: (§6) The hydrolytic activities of the wild-type β-lactamase I, E166C and E166Cf mutants towards penicillin G, penicillin V and ampicillin (Sigma) were monitored by the spectrophotometric method. The spectrophotometric measurements were performed on a Perkin Elmer Lambda Bio20 UV/Vis spectrometer. Substrate hydrolysis was monitored at a fixed wavelength: 235 nm for ampicillin, 232 nm for penicillin G and penicillin V. The initial rate of substrate hydrolysis occurring within 5 min was determined in duplicate at each of 6 different substrate concentrations in 50 mM potassium phosphate buffer (pH 7.0) at 20° C. The initial rates determined were then treated as described in Reference 5 to calculate the Michaelis constants (Km) and turnover numbers (kcat) using non-linear regression analysis (equation 1):
(§7) [formula] where v is the initial rate of substrate hydrolysis, Vmax the maximum rate of reaction, [S] the initial substrate concentration, Km the Michaelis constant and kcat=Vmax/[Enzyme].
(§8) The measured steady-state kinetic parameters for hydrolysis of penicillin G, penicillin V and ampicillin by the wild-type β-lactamase I, E166C and E166Cf mutants are summarized in Table 1.

[8] = biological target: T7, wild-type β-lactamase I (Bacillus cereus, UniProt P00809); assay: as above; format: biochemical; conditions: 50 mM potassium phosphate buffer pH 7.0, 20° C.
T7 construct: made in house; host or cells: B. subtilis 1A304 (φ105MU331)
T7 sequence (P00809 28-306): as the sequence (P00809 28-306) above
Procedure: as §6, §7, §8

[9] = biological target: T8, E166Cf (fluorescein-labeled E166C mutant of β-lactamase I) (Bacillus cereus, UniProt P00809, E185C); assay: as above; format: biochemical; conditions: E166Cf; 50 mM potassium phosphate buffer pH 7.0, 20° C.
T8 construct: made in house; host or cells: B. subtilis 1A304 (φ105MU331); then labelled chemically
T8 sequence (P00809 28-306 E185C): T1 sequence (P00809 28-306 E185C)
Procedure: as §6, §7, §8, §1

[10] = biological target: T1, E166Cf enzyme; assay: Time-resolved fluorescence of E166Cf enzyme with β-lactamase inhibitors; format: biochemical; conditions: 1.0×10^−3 M inhibitor; E166Cf 1.2×10^−7 M, 50 mM phosphate buffer pH 7.0
Procedure: Time-resolved fluorescence measurements of the E166Cf enzyme in the presence of sulbactam and clavulanate were performed on a Perkin Elmer LS50B spectrofluorometer. The excitation and emission wavelengths were set at 494 and 515 nm respectively. Both excitation and emission slit widths were set at 5 nm. All fluorescence measurements were performed at room temperature.
The fluorescence signals of the labeled enzyme (1.2×10^−7 M) obtained with sulbactam (1.0×10^−4 M) and clavulanate (1.0×10^−3 M) in 50 mM phosphate buffer (pH 7.0) are entirely different (FIGS. 18 and 19).

[11] = test system: CC1(C)S[C@@H]2[C@H](NC(=O)[C@H](N)c3ccccc3)C(=O)N2[C@H]1C(=O)O; assay: Spectrophotometric substrate hydrolysis, steady-state kinetics; format: biochemical, Bacillus cereus; conditions: other: Wild-type, 50 mM potassium phosphate buffer pH 7.0, 20° C.
Procedure: as §6, §7, §8

| Compound | time course of E166Cf fluorescence signal at 515 nm [1] | change in CD signal of antibiotic (hydrolysis by E166Cf) [2] | fluorescence signal of E166Cf (beta-lactam hydrolysis) [3] | fluorescence signal of E166Cf (beta-lactam hydrolysis) [4] | fluorescence signal of E166Cf (beta-lactam hydrolysis) [5] | fluorescence signal of E166Cf (beta-lactam hydrolysis) [6] | further results |
| --- | --- | --- | --- | --- | --- | --- | --- |
| CO[C@@]1(NC(=O)Cc2cccs2)C(=O)N2C(C(=O)O)=C(COC(N)=O)CS[C@@H]21 [Cefoxitin, cefoxitin] | no subsequent decline in intensity was observed | no significant changes in the CD signals | + | + | + | + |  |
| CO/N=C(\C(=O)N[C@@H]1C(=O)N2C(C(=O)O)=C(COC(N)=O)CS[C@H]12)c1ccco1 [Cefuroxime, cefuroxime] | no subsequent decline in intensity was observed | no significant changes in the CD signals | + | − | − | + |  |
| CO[C@@]1(NC(=O)C(C(=O)O)c2ccc(O)cc2)C(=O)N2C(C(=O)O)=C(CSc3nnnn3C)CO[C@@H]21 (some centres unmarked) [Moxalactam, moxalactam] | no subsequent decline in intensity was observed | no significant changes in the CD signals | + | + | + | + |  |
| CC1(C)S[C@@H]2[C@H](NC(=O)COc3ccccc3)C(=O)N2[C@H]1C(=O)O [Penicillin V, penicillin V] |  |  | − | − | − | − | Km [7]: 71 ± 6 µM; kcat [7]: 1.53 ± 0.03 s⁻¹; Km [8]: 52 ± 4 µM; kcat [8]: 2109 ± 4 s⁻¹; Km [9]: 117 ± 10 µM; kcat [9]: 2.97 ± 0.06 s⁻¹ |
| O=C(O)[C@H]1/C(=C/CO)O[C@@H]2CC(=O)N21 [clavulanate] |  |  |  |  |  |  | time course of E166Cf fluorescence signal at 515 nm [10]: instantaneous increase in fluorescence signal which declines rapidly within 200 s and then levels off to a plateau |
| wild-type β-lactamase I (Bacillus cereus) |  |  |  |  |  |  | Km [11]: 142 ± 8 µM; kcat [11]: 5210 ± 275 s⁻¹; kcat/Km [11]: 3.7e+07 ± 4e+06 M⁻¹ s⁻¹ |
